Earlier results in patent US11337989B2, “Compositions and methods for inhibiting inflammation and diseases using an alginic acid-based antimicrobial compound” (Evofem, Inc., priority 2013, dated 2022).
Blank lines part the entries; values can stand above or below the compound they belong to.

Key:
[1] = test system: HIV; conditions: compared with D or racemic lactic acid; Purcell et al. 2012
[2] = at an acidic pH
[3] = test system: bacteria associated with bacterial vaginosis; conditions: in vaginal fluid; O'Hanlon et al. 2011
[4] = test system: vaginal and cervical cells

Compound: C[C@H](O)C(=O)O [L form of lactic acid, L-(+)-lactic acid]
potency in inactivating HIV [1]: more potent

water solubility [2]: not water soluble
Compound: C[C@H](Cn1cnc2c(N)ncnc21)OCP(=O)(O)O [Tenofovir, 1-(6-aminopurin-9-yl)propan-2-yloxymethylphosphonic acid]

Compound: CC(O)C(=O)O (stereo not shown) [lactic acid]
suppression of bacteria associated with bacterial vaginosis [3]: suppressed

Compound: nonoxynol-9 [N-9]
toxicity to vaginal and cervical cells [4]: toxic
